# Reference: PMC5324060, “Evolutionary, computational, and biochemical studies of the salicylaldehyde dehydrogenases in the naphthalene degradation pathway” (Scientific Reports, 2017)
# Key:
# SALDan V153A = biological target: T1, SALDan V153A (Alteromonas naphthalenivorans, UniProt F5Z5S7, V153A); assay: Kinetics assay of SALDan mutant V153A; assay type: biochemical; details: V153A mutant versus wild-type
# T1 sequence (F5Z5S7 1-483 V153A): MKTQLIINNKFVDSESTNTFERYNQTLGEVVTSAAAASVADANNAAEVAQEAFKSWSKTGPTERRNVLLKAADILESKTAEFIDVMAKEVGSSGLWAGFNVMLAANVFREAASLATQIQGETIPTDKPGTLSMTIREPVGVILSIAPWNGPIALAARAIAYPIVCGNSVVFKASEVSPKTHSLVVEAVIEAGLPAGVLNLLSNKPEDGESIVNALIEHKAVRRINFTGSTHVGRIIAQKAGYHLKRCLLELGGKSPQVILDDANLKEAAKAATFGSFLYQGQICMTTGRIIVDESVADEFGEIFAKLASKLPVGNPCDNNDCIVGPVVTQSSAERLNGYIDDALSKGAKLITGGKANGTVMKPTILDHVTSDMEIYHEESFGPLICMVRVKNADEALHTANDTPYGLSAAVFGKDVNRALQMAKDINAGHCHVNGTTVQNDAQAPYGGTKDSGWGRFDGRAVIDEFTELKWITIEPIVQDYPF
# Source text: (§1) The primers used for the single amino acid mutant were as follows: N149A, forward primer, 5′-ATAGCACCGTGGGCCGGGCCTATTGTATTA-3′; reverse primer, 5′-TAATACAATAGGCCCGGCCCACGGTGCTAT-3′; V153A, forward primer, 5′-AATGGGCCTATTGTATTAGCGGCTCGG-3′; reverse primer, 5′-CCGAGCCGCTAATACAATAGGCCCATT-3′; E175A, forward primer, 5′-[…]-3′, reverse primer, 5′-GTTGGGACAGTCTTCCAGCCC-3′; E175A, forward primer, 5′-ATGCTCCACCAAATTGGGCAC-3′; reverse primer, 5′-TTTAGGACTTACTTCTGAAGCTTTAAA-3′. The PCR was performed using Pfu polymerase, and the cycling parameters were: 95 °C for 5 min (one cycle), 95 °C for 30 s, and 68 °C for 12 min (12 cycles). After amplification, the PCR mixture was digested with DpnI and then transformed into E. coli BL21(DE3) by electroporation. The mutants were confirmed by DNA sequencing.
# The activity of the purified proteins was determined using SAL as a substrate. […] The SALDan activity was monitored as the rate of appearance of NADH at 340 nm spectrophotometrically. The specific activity of the enzyme (units.mg^−1.min^−1) was expressed as the amount of enzyme required to produce 1 μM of NADH under the assay conditions. The influence of pH on the activity was determined using the protocol described above, with the exception of replacing the Tris-HCl buffer with 50 mM sodium acetate (pH 3.0–5.0), 50 mM 2-(N-morpholino)ethanesulfonic acid (pH 5.0–7.5), 50 mM HEPES (pH 8.0–8.5), 50 mM glycine (pH 9.0–10.0), or 50 mM sodium phosphate (pH 11.0)[52]. […]
# (§2) For kinetic studies of aldehydes, the initial velocities of the enzymatic reactions were examined by varying the concentrations of various aromatic as well as aliphatic aldehydes in the presence of NAD^+ (100 μM) and the enzyme (0.1 μM) under optimal conditions. For substrates that absorb at 340 nm, thus interfering with the calculation of the initial rate, their molar coefficients (ε) were calculated as described previously[64] and are presented in Table S1. The apparent kinetic parameters were calculated using the equation: […]
# SALDan E175A = biological target: T2, SALDan E175A (Alteromonas naphthalenivorans, UniProt F5Z5S7, E175A); assay: Kinetics assay of SALDan mutant E175A; assay type: biochemical
# T2 sequence (F5Z5S7 1-483 E175A): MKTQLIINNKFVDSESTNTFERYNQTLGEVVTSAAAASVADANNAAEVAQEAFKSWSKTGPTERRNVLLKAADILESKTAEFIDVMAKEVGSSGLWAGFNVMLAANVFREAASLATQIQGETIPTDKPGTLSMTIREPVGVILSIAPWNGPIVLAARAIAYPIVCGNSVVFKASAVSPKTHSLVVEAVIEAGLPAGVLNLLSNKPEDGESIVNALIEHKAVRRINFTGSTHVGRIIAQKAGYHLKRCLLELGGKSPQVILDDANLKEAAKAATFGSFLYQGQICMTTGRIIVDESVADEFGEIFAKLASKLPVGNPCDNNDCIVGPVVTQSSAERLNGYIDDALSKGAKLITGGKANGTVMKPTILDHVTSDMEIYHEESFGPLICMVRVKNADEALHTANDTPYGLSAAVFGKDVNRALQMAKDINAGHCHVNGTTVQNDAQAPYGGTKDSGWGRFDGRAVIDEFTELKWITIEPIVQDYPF
# Source text: as §1
# The activity of the purified proteins was determined using SAL as a substrate. A reaction volume of 500 μL was prepared in a microfuge tube containing purified SALDan (0.1 μM), SAL (100 μM), and NAD^+ (100 μM) dissolved in 50 mM HEPES (pH 7.5) containing 150 mM NaCl. The SALDan activity was monitored as the rate of appearance of NADH at 340 nm spectrophotometrically. The specific activity of the enzyme (units.mg^−1.min^−1) was expressed as the amount of enzyme required to produce 1 μM of NADH under the assay conditions. The influence of pH on the activity was determined using the protocol described above, with the exception of replacing the […] buffer with 50 mM sodium acetate (pH 3.0–5.0), 50 mM 2-(N-morpholino)ethanesulfonic acid (pH 5.0–7.5), 50 mM HEPES (pH 8.0–8.5), 50 mM glycine (pH 9.0–10.0), or 50 mM sodium phosphate (pH 11.0)[52]. All assays were performed at the optimal temperature. To determine the influence of temperature on the enzymatic activity, the reactions were performed at 15, 20, 25, 30, 35, 40, and 45 °C, respectively.
# as §2
# The apparent kinetic parameters for NAD^+ were determined at a fixed concentration of SAL (50 μM) and a varying concentration of NAD^+ (0–500 μM). The apparent Km and Vmax values were calculated by using the equation: […]
# All the activity data were determined by three separate experiments with at least three technical replicates.
smiles,measurement,setting,value
"NC(=O)c1ccc[n+]([C@@H]2O[C@H](COP(=O)([O-])OP(=O)(O)OC[C@H]3O[C@@H](n4cnc5c(N)ncnc54)[C@H](O)[C@@H]3O)[C@@H](O)[C@H]2O)c1 [NAD^+, nicotinamide adenine dinucleotide]",effect on the kinetic parameters,SALDan V153A,no significant effect
same,change of apparent Km value,SALDan E175A; E175A mutant versus wild-type,increased by about two times
same,change of kcat/Km (catalytic efficiency),SALDan E175A; E175A mutant versus wild-type,decreased by four times
same,increase of Km,SALDan E175A; mutation of Glu175 versus wild-type (Discussion),5 fold
